Measurements published in publication PMC9929232, “On-demand male contraception via acute inhibition of soluble adenylyl cyclase” (Nature Communications, 2023).
Where “and” joins values, the source holds several entries; their conditions need not be identical. Identical values can stand only once.

Assays:
[1] = molecular target: T1, purified recombinant human sAC protein (Homo sapiens, UniProt Q96PN6); assay: In vitro adenylyl cyclase activity assay (two-column method);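 for cyclase activity (%): 100% equals DMSO vehicle-treated control activity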; assay type: biochemical; design: cyclase activity: unit not given here; details: for cyclase activity (%): Fig. 1c normalized replicates; for cyclase activity: Fig. 1c replicates
T1 construct: human sACt protein was incubated
T1 sequence (Q96PN6 1-469 limits assumed): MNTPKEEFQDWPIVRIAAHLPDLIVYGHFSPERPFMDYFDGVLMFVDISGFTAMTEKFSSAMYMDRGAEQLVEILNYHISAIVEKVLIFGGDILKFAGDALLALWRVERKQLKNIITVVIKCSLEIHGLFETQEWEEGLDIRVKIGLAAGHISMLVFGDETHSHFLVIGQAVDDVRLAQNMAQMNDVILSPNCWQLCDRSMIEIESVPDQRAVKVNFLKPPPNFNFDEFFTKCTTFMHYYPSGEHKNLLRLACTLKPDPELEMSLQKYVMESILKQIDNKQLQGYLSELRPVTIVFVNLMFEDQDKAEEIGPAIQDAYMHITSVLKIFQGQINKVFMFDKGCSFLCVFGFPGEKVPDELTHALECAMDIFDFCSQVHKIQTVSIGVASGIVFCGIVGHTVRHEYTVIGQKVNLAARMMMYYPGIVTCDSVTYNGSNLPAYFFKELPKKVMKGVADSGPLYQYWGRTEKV
Experimental: All in vitro adenylyl cyclase activity assays were performed via the “two-column” method measuring the conversion of [α-^32P] ATP into [^32P] cAMP[54], as previously described. Briefly, human sACt protein was incubated in buffer containing 50 mM Tris-HCl, pH 7.5, 4 mM MgCl2, 2 mM CaCl2, 1 mM ATP, 3 mM DTT, 40 mM NaHCO3 in the presence of the indicated concentrations of different sAC inhibitors or vehicle (1% DMSO).

epididymal mouse sperm = assay: Ex vivo motility (CASA) of epididymal sperm from inhibitor-treated male mice; assay type: in vivo; design: hyperactivated motility (%): concentration or dose not given beside the values
Experimental: Sperm movements of 10 fields of at least 200 sperm were examined using computer-assisted sperm analysis (CASA) via Hamilton–Thorne digital image analyzer (IVOS II, Hamilton Thorne Research, Beverly, MA) with the following parameters: 30 frames, frame rate: 60 Hz, cell size: 30–170 μm^2. Ejaculated uterine mouse sperm were recorded without additional dilution. Sperm were considered motile when presenting STR ≥80% and VAP ≥50 μm/s and hyperactivated when presenting VCL ≥270 μm/s, LIN < 50%, and ALH ≥7 μm. Track´s color code: motile (green), progressive (turquoise), hyperactivated (purple), slow (pink), static (red), not counted due to late entry (yellow).

human sperm [2] = assay: Flagellar beat frequency of tethered human sperm; assay type: cell-based
Experimental: An inverted dark-field video microscope (IX73; Olympus) with a 10 x objective (mouse sperm) or a 20 x objective (human sperm) (UPLSAPO, NA 0.8; Olympus) was combined with a high-speed camera (ORCA Fusion; Hamamatsu). Dark-field videos were recorded with a frame rate of 200 Hz. The temperature of the heated stage was set to 37 °C (stage top incubator WSKMX; TOKAI HIT). The images were preprocessed with the ImageJ plugin SpermQ Preparator (Gaussian blur with sigma 0.5 px; subtract background method with radius 5 px) and analyzed using the ImageJ plugin SpermQ[57]. The beat frequency was determined from the highest peak in the frequency spectrum of the curvature time course, obtained by Fast Fourier Transform.

human sperm [3] = assay: Acrosome reaction assay, human sperm, progesterone-evoked; assay type: cell-based
Experimental: (§1) Acrosome reaction was induced by incubating mouse sperm with 50 mouse solubilized zonae pellucidae for 15 min at 37 °C. Human sperm were incubated with 10 μM progesterone for 30 min at 37 °C. […] Samples were air-dried on microscope slides and fixed for 30 minutes in 100% ethanol at room temperature (RT). For acrosome staining, mouse and human sperm were incubated for 30 min in the dark with 5 μg/ml PNA-FITC or 5 μg/ml PSA-FITC, respectively, and counterstained with 2 μg/ml DAPI. After curing, slides were analyzed using a Zeiss LSM 880 Laser Scanning Confocal Microscope; images were captured with two photomultiplier and one Gallium Arsenide Phosphide detector using ZEN Imaging software. For each condition, at least 600 cells were analyzed using ImageJ 1.52.

mouse sperm = assay: Acrosome reaction assay, mouse sperm, zona pellucidae-evoked; assay type: cell-based
Experimental: Zonae pellucidae were isolated from female mice superovulated by intraperitoneal injection of 10 I.U. […] 3 days before the experiment. 14 h before oocyte isolation, mice were injected with 10 I.U. pregnant mare’s serum gonadotropin. Mice were sacrificed by cervical dislocation and oviducts were dissected. Cumulus-enclosed oocytes were separated from the oviducts and placed into TYH buffer containing 300 μg/ml hyaluronidase. After 15 min, cumulus-free oocytes were transferred into fresh buffer and washed twice. Zonae pellucidae and oocytes were separated by shear forces generated by expulsion from […] pasteur pipettes. Zona pellucidae were counted, transferred into fresh buffer, and heat-solubilized by incubation for 10 min at 65 °C.
as §1

[4] = concentration (uM) -0.52288 [sic]
[5] = concentration (uM) -1.95424 [sic]
[6] = concentration (uM) -2.43136 [sic]
[7] = concentration (uM) -2.90848 [sic]
[8] = concentration (uM) -3.38561 [sic]
[9] = concentration (uM) -3.86274 [sic]
[10] = concentration (uM) -4.33985 [sic]
[11] = concentration (uM) -4.81696 [sic]
[12] = concentration (uM) printed -1.47712

## Nc1nc(Cl)cc(-c2nn(C(F)F)cc2Cc2ccccc2OCCN2CCOC[C@@H]2CO)n1 [TDI-11861]
[1]; [4]
  cyclase activity (%): 0%
  cyclase activity: 2069 and 1544 and 1561.8 and 2385.2 and 2164.1 and 1653.5
[1]; concentration (uM) -1 [sic]
  cyclase activity (%): 1.344% and 1.8728% and 2.004% and 2.905% and 3.587% and 4.384%
  cyclase activity: 2867.6 and 2750.4 and 2889.4 and 3159.9 and 3272.8 and 3037.2
[1]; [5]
  cyclase activity (%): 19.6796% and 15.3927% and 17.558% and 30.5194% and 31.8303% and 33.3011%
  cyclase activity: 13763.6 and 11459.5 and 13193 and 10525 and 12002.6 and 12163.6
[1]; [6]
  cyclase activity (%): 38.6741% and 36.8021% and 41.7291% and 63.9723% and 46.6554% and 57.8417%
  cyclase activity: 25051.1 and 25250.8 and 29205 and 19447.2 and 16584.9 and 19908.8
[1]; [7]
  cyclase activity (%): 59.9199% and 65.2563% and 61.8852% and 88.985% and 69.2179% and 73.6242%
  cyclase activity: 37676.4 and 43580.1 and 42557.3 and 26118.3 and 23558.8 and 24889.9
[1]; [8]
  cyclase activity (%): 101.82% and 89.3095% and 88.0533% and 91.9223% and 87.6768% and 92.6716%
  cyclase activity: 62575.6 and 59074.4 and 59892.2 and 26901.7 and 29264.3 and 30901.4
[1]; [9]
  cyclase activity (%): 102.032% and 91.5857% and 92.0528% and 108.947% and 93.3751% and 103.72%
  cyclase activity: 62701.3 and 60540.7 and 62541.6 and 31442.4 and 31025.6 and 34388.3
[1]; [10]
  cyclase activity (%): 103.469% and 99.6453% and 98.4201% and 105.132% and 92.0891% and 95.6319%
  cyclase activity: 63555.2 and 65732.4 and 66759.6 and 30424.8 and 30628.1 and 31835.7
[1]; [11]
  cyclase activity (%): 100%
  cyclase activity: 61494 and 65960.9 and 67806.2 and 29056.1 and 33073.3 and 33214.3
[1]; [12]
  cyclase activity (%): 6.461% and 6.308% and 6.301% and 11.7225% and 11.6858% and 13.5507%
  cyclase activity: 5908.5 and 5607.6 and 5735.6 and 5511.7 and 5776.1 and 5930.2
Epididymal mouse sperm; 50 mg/kg i.p.
  earliest time of motility inhibition post i.p.-injection: 15 min
Epididymal mouse sperm; 50 mg/kg i.p., 24 hours post-injection
  recovery of sperm motility: most sperm from TDI-11861-injected mice had recovered motility
Epididymal mouse sperm; 50 mg/kg oral
  motility of epididymal sperm diluted ex vivo: essentially immotile
Epididymal mouse sperm; Fig. 3b replicates, 50 mg/kg oral gavage, 1 hour, diluted 1:100 in inhibitor-free non-capacitating media, CASA, 50 mg/kg
  motility (%): 2.8% and 0.5% and 0.3% and 0.7% and 1.7% and 1.9% and 3.3% and 1.6% and 3.6% and 3.8% and 1.1%
Epididymal mouse sperm; Fig. 3b replicates, 50 mg/kg oral gavage, 1 hour, in presence of 5 mM db-cAMP/500 μM IBMX, 50 mg/kg
  motility (%), + cAMP: 10.8% and 22.6% and 32.3% and 13.1% and 19.4% and 14.6% and 14% and 11.2%
Epididymal mouse sperm; Fig. 4b, epididymal sperm
  progressive motility (%): 0.9% and 1.3% and 2.1% and 0.4% and 1.5% and 0.8% and 0.3%
Epididymal mouse sperm; Fig. 4c, epididymal sperm
  hyperactivated motility (%): 0.8% and 0.4% and 1.6% and 0.2% and 0.1% and 0.6% and 0.3%
Epididymal mouse sperm; Fig. 5, time 0.25 h
  motility (%): 0.4% and 0.6% and 0.8% and 0.3% and 0.7% and 1.3% and 1%
Epididymal mouse sperm; Fig. 5, time 0.5 h
  motility (%): 3.4% and 0.5% and 1.4% and 4.6% and 1.7% and 0.9%
Epididymal mouse sperm; Fig. 5, time 2 h
  motility (%): 1.1% and 1.7% and 1.2% and 0.7% and 2.3% and 2.7%
Epididymal mouse sperm; Fig. 5, time 2.5 h
  motility (%): 0.8% and 6.3% and 0.7% and 1.3% and 0.9% and 0.4%
Epididymal mouse sperm; Fig. 5, time 3 h
  motility (%): 1.2% and 0.4% and 6.5% and 6.2% and 3.7%
Epididymal mouse sperm; Fig. 5, time 24 h
  motility (%): 22.8% and 19.1% and 22% and 33.1% and 20.5% and 20.6%
Epididymal mouse sperm; Fig. 3d, + cAMP, individual replicates
  motility (%): 17.3% and 12.5% and 13.3% and 33% and 16.6% and 14.6%
Epididymal mouse sperm; Fig. 3d, individual replicates
  motility (%): 3% and 0.6% and 2% (2×) and 1.9% and 3.8% and 2.2% and 2.3% and 1.4% and 0.9% (2×) and 2.5% and 0.4% and 0.2% and 1.1% and 2.8%
Human sperm [2]; distal 5 µm of flagellum, 5 μM TDI-10229 or 10 nM TDI-11861, mean ± SEM
  Beat frequency, Basal: 11.4 ± 1.3 Hz
Human sperm [2]; distal 5 µm, 25 mM NaHCO3, 5 μM TDI-10229 or 10 nM TDI-11861, mean ± SEM
  Beat frequency, + HCO3-: 11.0 ± 0.8 Hz
Human sperm [3]
  toxicity to sperm (rescue of acrosome response by cAMP/IBMX): not toxic to sperm
Human sperm [3]; Fig. 2h replicates, 10 μM progesterone, 5 μM TDI-10229 or 10 nM TDI-11861
  Acrosome reacted (%), Prog: 11.2728% and 11.1787% and 11.2041% and 9.266% and 10.4762% and 13.6206%
Human sperm [3]; Fig. 2h replicates, 10 μM progesterone, 5 mM db-cAMP/500 μM IBMX, 5 μM TDI-10229 or 10 nM TDI-11861
  Acrosome reacted (%), Prog + db-cAMP/IBMX: 28.3207% and 19.1712% and 18.125% and 29.0658% and 24.3412% and 18.4673%
Human sperm [3]; Fig. 2h replicates, 5 mM db-cAMP/500 μM IBMX, 5 μM TDI-10229 or 10 nM TDI-11861
  Acrosome reacted (%), basal + db-cAMP/IBMX: 16.1667% and 6.667% and 10.5% and 10.6667% and 19.1045% and 11.7728%
Human sperm [3]; Fig. 2h replicates, 180 min capacitating media, 5 μM TDI-10229 or 10 nM TDI-11861
  Acrosome reacted (%), basal: 12.5473% and 10% and 15.2336% and 15.1667% and 10.3704% and 13.6209%
Mouse sperm
  toxicity to sperm (rescue of acrosome response by cAMP/IBMX): not toxic to sperm
Mouse sperm; Fig. 2g replicates, 5 mM db-cAMP/500 μM IBMX, 5 μM TDI-10229 or 10 nM TDI-11861
  Acrosome reacted (%), basal + db-cAMP/IBMX: 33.6897% and 30.4912% and 38.1667% and 17.5365% and 24% and 40.1452%
Mouse sperm; Fig. 2g replicates, 50 heat-solubilized zona pellucidae, 5 μM TDI-10229 or 10 nM TDI-11861
  Acrosome reacted (%), ZP: 22.9233% and 33% and 26.2439% and 20.6667% and 34.5025% and 32.3333%
Mouse sperm; Fig. 2g replicates, 90 min capacitating media, 5 μM TDI-10229 or 10 nM TDI-11861
  Acrosome reacted (%), basal: 31.9785% and 35% and 27.6378% and 28.974% and 29% and 25%
Mouse sperm; Fig. 2g replicates, zona pellucidae, 5 mM db-cAMP/500 μM IBMX, 5 μM TDI-10229 or 10 nM TDI-11861
  Acrosome reacted (%), ZP + db-cAMP/IBMX: 42.963% and 32.2222% and 37.3475% and 28% and 29.3534% and 43%
